Measured values published in PMC8124365 (International Journal of Molecular Sciences, 2021).
Where two headings read alike, the source gives them in different places.

Experiments:
C4-2 xenografts = test: Biodistribution of radioligand in mice with C4-2 xenografts; assay type: in vivo, Hsd:Athymic Nude-Foxn1^nu mice; settings: free ^212Pb control
Source text: For the biodistribution and therapy studies, 105 male Hsd:Athymic Nude-Foxn1^nu mice bred at the Department of Comparative Medicine at the Norwegian Radium Hospital (Oslo University Hospital, Oslo, Norway) were used. For the toxicity study, 13 male BALB/cJRj mice from Janvier Labs (Le Genest-Saint-Isle, France) were used. The studies were approved by the Institutional Committee on Research Animal Care (Department of Comparative Medicine, Oslo University Hospital) and the Norwegian Food Safety Authority (Brumunddal, Norway, approval: FOTS ID 22197, 20/49651). All procedures and experiments involving animals in this study were performed in accordance with the Interdisciplinary Principles and Guidelines for the Use of Animals in Research, Marketing and Education (New York Academy of Sciences, New York, USA) and the EU Directive 2010/63/EU for animal experiments as well as the ARRIVE guidelines. The animals were maintained under specific pathogen-free conditions with ad libitum access to food and water. Cages (1–5 mice per cage) were housed in a scantainer, which was maintained at constant temperature (24 °C) and humidity (60%). The mice were around 4–6 weeks in age and weighed 25–35 g at the start of the study.
Mice were inoculated subcutaneously in both flanks with 10 × 10^6 C4-2 cells in supplement-free RPMI1640 medium mixed 1:1 with Matrigel Matrix (Corning, NY, USA) in a total volume of 200 µL. In one of the biodistribution experiments, mice were inoculated with 5 × 10^6 PC-3 cells (200 µL, 1:1 medium:Matrigel Matrix) as a negative control. The tumours were allowed to grow to reach a volume of 300–1500 mm^3 for the biodistribution studies and a volume of 30–300 mm^3 for the therapy studies, and tumour-bearing mice were randomised based on tumour size before radioligand injection. Mice were monitored 2–3 times per week for changes in body weight and tumour size and were euthanised by cervical dislocation if any of the following humane end points were reached: >20% weight loss from initial body weight, rapid weight loss (>10% within 2 days), tumours exceed 20 mm in any direction, ulcerate or interfere with normal behaviour, or any signs of severe sickness or discomfort.
At various time points after injection (from 15 min up to 48 h), organs/tissues were harvested, and radioligand uptake was calculated as a percentage of injected dose per gram tissue (%ID/g). Effective half-lives in selected organs were obtained by fitting monoexponential functions to the biodistribution data (Bq/g vs. time), normalised to 1 MBq/kg, (1) y(t)=a×e^−ln(2)×t/Teffective
The biological half-lives were then calculated by the following formula:(2) 1/Teffective=1/Tbiological+1/Tphysical

PC-3 PIP [1] = test system: PC-3 PIP; set-up: method as in Umbricht et al., 2018 [60]; settings: Athymic nude BALB/c (PC-3 PIP), median survival, ref Umbricht et al., 2018 [60], cited from earlier work
PC-3 PIP [2] = test system: PC-3 PIP; set-up: method as in Banerjee et al., 2019 [3]; settings: 111 MBq; NOD-SCID gamma (PC-3 PIP); median survival; ref Banerjee et al., 2019 [3]; cited from earlier work
PC-3 PIP [3] = test system: PC-3 PIP; set-up: method as in Benesova et al., 2018 [33]; settings: Athymic nude BALB/c (PC-3 PIP), ref Benesova et al., 2018 [33], cited from earlier work
LNCaP [4] = test system: LNCaP; set-up: method as in Kuo et al., 2018 [30]; settings: 18.5 MBq; NOD rag gamma (LNCaP); median survival; ref Kuo et al., 2018 [30]; cited from earlier work
RM1-PGLS [5] = test system: RM1-PGLS; set-up: method as in Fendler et al., 2017 [36]; settings: C57BL/6 (RM1-PGLS), median survival, ref Fendler et al., 2017 [36], cited from earlier work
LNCaP [6] = settings: cited from earlier work; for Kidney Uptake / Tumour Uptake: NOD-SCID gamma (LNCaP), ref Kuo et al., 2018 [30]
LNCaP [7] = test system: LNCaP; set-up: method as in Benesova et al., 2015 [31]; settings: BALB/c nu/nu (LNCaP), ref Benesova et al., 2015 [31], cited from earlier work
tumour = test system: tumour; set-up: method as in Fendler et al. [36]; settings: after 4 days; ref Fendler et al. [36]; cited from earlier work
LNCaP [8] = settings: cited from earlier work; for Kidney Uptake / Tumour Uptake: BALB/c nu/nu (LNCaP), ref Kelly et al., 2018 [32]
RM1-PGLS [9] = settings: cited from earlier work
C4-2 = settings: cited from earlier work; for TI: NOD-SCID gamma (C4-2), median survival, ref Stuparu et al., 2020 [59]; for Toxicity in treated mice: radiosensitive model, ref [59]
[10] = test system: subcutaneous tumour models; settings: 0.02–0.1 MBq; ref [59],[61]; cited from earlier work

What does the source list for `[212Pb+2]` [^212Pb^2+]?
Uptake in kidneys (C4-2 xenografts; 1–8 h post injection): 34.2–49.0 %ID/g; Uptake in liver (C4-2 xenografts; 1–8 h post injection): 8.3–9.1 %ID/g; Uptake in bones (C4-2 xenografts; at 1–4 h): 7.3–10.4 %ID/g; Uptake in bones (C4-2 xenografts; at 8 h): 1.0–2.6 %ID/g

For `O=C([O-])CN1CCN(CC(=O)[O-])CCN(CC(=O)NCC2CCC(C(=O)N[C@@H](Cc3ccc4ccccc4c3)C(=O)NCCCC[C@H](NC(=O)N[C@@H](CCC(=O)O)C(=O)O)C(=O)O)CC2)CCN(CC(=O)[O-])CC1.[177Lu+3]` (stereo partly drawn) [^177Lu-PSMA-617], which TI (PC-3 PIP [1]; 2 MBq (2 MBq/nmol)) is on record?
The TI was 1.1.

And the TI (PC-3 PIP [1]; 5 MBq (5 MBq/nmol))?
Its TI is 1.8.

What about the TI (PC-3 PIP [2]) of the same compound?
The TI was 3.9.

And the “Kidney Uptake” value (PC-3 PIP [3]; 1h)?
Its value is 9.8 ± 1.4 %ID/G.

And the “Tumour Uptake” value (PC-3 PIP [3]; 1h)?
Its value is 44.2 ± 12.0 %ID/G.

What about the “Kidney Uptake” value (PC-3 PIP [3]; 4h) of the same compound?
The value was 3.4 ± 3.2 %ID/G.

And the “Tumour Uptake” value (PC-3 PIP [3]; 4h)?
Its value is 56.0 ± 8.0 %ID/G.

And the “Kidney Uptake” value (PC-3 PIP [3]; 24h)?
The value was 0.8 ± 0.9 %ID/G.

What about the “Tumour Uptake” value (PC-3 PIP [3]; 24h) of the same compound?
Its value is 37.3 ± 5.8 %ID/G.

And the TI (LNCaP [4])?
Its TI is 4.1.

And the TI (RM1-PGLS [5]; 30 MBq (62 MBq/nmol))?
The TI was 1.4.

And the TI (RM1-PGLS [5]; 60 MBq (62 MBq/nmol))?
The TI was 1.9.

And the TI (RM1-PGLS [5]; 120 MBq (62 MBq/nmol))?
The TI was 1.9.

What about the “Kidney Uptake” value (LNCaP [6]; 1h) of the same compound?
The value was 97.2 ± 19.4 %ID/G.

And the “Tumour Uptake” value (LNCaP [6]; 1h)?
Its value is 15.1 ± 5.6 %ID/G.

What about the “Kidney Uptake” value (LNCaP [6]; 4h) of the same compound?
The value was 26.6 ± 19.1 %ID/G.

And the “Tumour Uptake” value (LNCaP [6]; 4h)?
Its value is 14.5 ± 1.8 %ID/G.

And the “Kidney Uptake” value (LNCaP [6]; 24h)?
Its value is 0.6 ± 0.2 %ID/G.

What about the “Tumour Uptake” value (LNCaP [6]; 24h) of the same compound?
Its value is 10.9 ± 3.3 %ID/G.

And the Tumour level (LNCaP [6]; after 5 days, ref Kuo et al. [30])?
The Tumour level was 7 %ID/g.

What about the “Kidney Uptake” value (LNCaP [7]; 1h) of the same compound?
The value was 137.2 ± 77.8 %ID/G.

What about the “Tumour Uptake” value (LNCaP [7]; 1h) of the same compound?
Its value is 11.2 ± 4.2 %ID/G.

And the “Kidney Uptake” value (LNCaP [7]; 24h)?
Its value is 2.1 ± 1.4 %ID/G.

And the “Tumour Uptake” value (LNCaP [7]; 24h)?
Its value is 10.6 ± 4.5 %ID/G.

And the Tumour level (tumour)?
Its Tumour level is 0.7 %ID/g.

And the “Kidney Uptake” value (LNCaP [8]; 4h)?
The value was 14.1 ± 3.1 %ID/G.

And the “Tumour Uptake” value (LNCaP [8]; 4h)?
Its value is 14.4 ± 1.1 %ID/G.

And the “Kidney Uptake” value (LNCaP [8]; 24h)?
Its value is 0.7 ± 0.1 %ID/G.

What about the “Tumour Uptake” value (LNCaP [8]; 24h) of the same compound?
The value was 4.6 ± 0.6 %ID/G.

And the Tumour level (LNCaP [8]; after 4 days, ref Kelly et al. [32])?
The Tumour level was 3.5 %ID/g.

What does the source list for `O=C([O-])CC[C@H](NC(=O)N[C@@H](CCCCNC(=O)[C@H](Cc1ccc2ccccc2c1)NC(=O)[C@H]1CC[C@H](CNC(=O)CN2CCN(CC(=O)[O-])CCN(CC(=O)[O-])CCN(CC(=O)[O-])CC2)CC1)C(=O)[O-])C(=O)[O-].[225Ac].[H+].[H+].[H+]` [^225Ac-PSMA-617]?
TI (RM1-PGLS [9]; 0.03 MBq (0.13 MBq/nmol), Athymic nude mice (RM1-PGLS), median survival, ref Czernin et al., 2020 [61]): 1.1; Toxicity in treated mice (RM1-PGLS [9]; 0.03 MBq, more radioresistant model, ref [61]): no signs of toxicity; TI (C4-2; 0.02 MBq (0.13 MBq/nmol)): 3.6; Toxicity in treated mice (C4-2; 0.02 and 0.04 MBq): transient weight loss; TI (C4-2; 0.04 MBq (0.13 MBq/nmol)): 6.7; TI (C4-2; 0.10 MBq (0.13 MBq/nmol)): 4.2; Toxicity in treated mice (C4-2; 0.10 MBq): severe weight loss; Therapeutic Index Range [10]: 1.1–6.7
